Measurements as given in patent US20250275537A1, “CARBOXAMIDE APYRASE INHIBITORS” (Texas Crop Science, Inc., priority 2024, published 2025).

Columns and labels:
[1] = test system: Amaranthus retroflexus (pigweed); assay: Enhancement of herbicide activity: pre-emergence Amaranthus kill with metribuzin (Method 4); format: in vivo; conditions: Assessed 7 DAT, metribuzin rate 50 g/ha; enhancer at 100 g/ha
Excerpt: Small amounts of acetone were used to aid solubility. The pots were watered immediately after sowing and treatment and then allowed to stand in a glasshouse. Assessment of kill was made seven and fourteen days after treatment. The test included four replicates for each treatment and the control.

apyrase = assay: Apyrase inhibition assay (Method 1); format: biochemical; conditions: inhibitor conc at 1 mM stock, 10 μl per well; 1 hr room temperature; rounded average of at least two assay results
Description: Apyrase inhibitors useful as enhancers of pesticidal activity are assessed using an in vitro assay. The method of Windsor, Bio Techniques 33:1024-1030 (November 2002) was used as follows
96 well plates were used for the assay: (Greiner bio-one: REF-655901-96 well, PS, F-bottom, Clear, Non-binding)
• Reaction Buffer: 60 mM Hepes, 3 mM MgCl2, 3 mM CaCl2 and 3 mM ATP (pH 6.5) • Development Buffer A: 2% aqueous ammonium molybdate • Development Buffer B: 11% ascorbic acid in 37.5% TCA in water • Stop buffer C: 2% trisodium citrate in 2% acetic acid solution in water • Add 100 μl of reaction buffer to each well. • Add 10 μl of DMSO (control) or inhibitor/compound or compounds such as N1915 or orthovanadate to each well. (use inhibitor conc at 1 mM; orthovanadate at 2 mM and N1915 at 1 mM) • Add 10 μl of apyrase (concentration based on optimization —Dilute 1 U/μl enzyme to different concentrations such as 0.1U, 0.05U, 0.0025, 0.001U, 0.0005U—to find a good range) • Incubate plate at room temperature for 1 hr • Mix development buffer A and B in the ratio of 1:1.5 (just before use). • Add 50 ul of A:B mix in each well (incubate for 2 mins) • Add 50 ul of C in each well • Measure/Read Absorbance of plate @630 nm
Inhibitory data for the apyrase assay described above are provided for selected compounds in Table 3. In Table 3, D indicates inhibition of <10%.
With reference to Table 3, percent inhibition of apyrase is reported as the rounded average of at least two assay results.

% Inhibition of Apyrase (apyrase)	SMILES	Pre-Emergence Amaranthus Kill Percentage [1]
D (D indicates inhibition of <10%)	O=C(Nc1cccc2c1CNC2=O)c1cccc(C(=O)Nc2cccc3c2CNC3=O)c1 [Compound I-54, N^1,N^3-bis(1-oxoisoindolin-4-yl)isophthalamide]	–
D (D indicates inhibition of <10%)	CN(C(=O)c1ccccc1C(=O)Nc1cccc(C(F)(F)F)c1)C1CCCCC1 [Compound I-43, N^1-cyclohexyl-N^1-methyl-N^2-(3-(trifluoromethyl)phenyl)phthalamide]	–
A (A indicates inhibition above 30%)	O=C(Nc1ccc(OC(F)(F)C(F)F)cc1)c1cccc(C(=O)Nc2ccc(OC(F)(F)C(F)F)cc2)c1 [Compound I-62, N^1,N^3-bis(4-(1,1,2,2-tetrafluoroethoxy)phenyl)isophthalamide]	–
D (D indicates inhibition of <10%)	C#Cc1cccc(NC(=O)c2ccccc2C(=O)N2CCN(C)CC2)c1 [Compound I-58, N-(3-ethynylphenyl)-2-(4-methylpiperazine-1-carbonyl)benzamide]	–
D (D indicates inhibition of <10%)	CNC(=O)c1cccc(C(=O)Nc2ccc(NS(=O)(=O)C(F)(F)F)cc2)c1 [Compound I-56, N^1-methyl-N^3-(4-((trifluoromethyl)sulfonamido)phenyl)iso-phthalamide]	–
D (D indicates inhibition of <10%)	Cc1nncn1CCNC(=O)c1ccc(C(=O)Nc2ccccc2)cc1 [Compound I-49]	–
D (D indicates inhibition of <10%)	O=C(Nc1ccccc1)c1ccc(C(=O)Nc2cnn(CC3CCCO3)c2)cc1 (centres unmarked) [Compound I-61, N^1-phenyl-N^4-(1-((tetrahydrofuran-2-yl)methyl)-1H-pyrazol-4-yl)terephthalamide]	–
D (D indicates inhibition of <10%)	O=C(NCc1ncc[nH]1)c1ccc(C(=O)Nc2ccccc2)cc1 [Compound I-48, N^1-((1H-imidazol-2-yl)methyl)-N^4-phenylterephthalamide]	–
D (D indicates inhibition of <10%)	Cn1c(=O)c2ccccc2c(=O)n1Cc1nnc(C2CC2)o1 [Compound I-59, 2-((5-cyclopropyl-1,3,4-oxadiazol-2-yl)methyl)-3-methyl-2,3-dihydrophthalazine-1,4-dione]	–
D (D indicates inhibition of <10%)	CNC(=O)c1cccc(C(=O)Nc2ccc3[nH]c(=O)sc3c2)c1 [Compound I-50, N^1-methyl-N^3-(2-oxo-2,3-dihydrobenzo[d]thiazol-6-yl)isophthalamide]	–
D (D indicates inhibition of <10%)	CCCNC(=O)c1cccc(C(=O)Nc2ccc3c[nH]nc3c2)c1 [Compound I-52, N^1-(2H-indazol-6-yl)-N^3-propylisophthalamide]	–

Second part, the compound before the results:

SMILES	% Inhibition of Apyrase (apyrase)	Pre-Emergence Amaranthus Kill Percentage [1]
CSc1nnc(C(C)(C)C)c(=O)n1N [metribuzin, reference compound]	–	0.0%
Cc1nc(NC(=O)c2ccc(C(=O)Nc3ccccc3)cc2)n[nH]1 [Compound I-39, N^1-(5-methyl-1H-1,2,4-triazol-3-yl)-N^4-phenylterephthalamide]	D (D indicates inhibition of <10%)	–
O=C(NCC#Cc1ccccc1)c1ccc(C(=O)Nc2ccccc2)cc1 [Compound I-23, N1-phenyl-N4-(3-phenylprop-2-yn-1-yl)terephthalamide]	C (C indicates inhibition of from 10% to 20%)	–
CCn1cc2ccc(NC(=O)c3cccc(C(=O)NC)c3)cc2n1 [Compound I-22, N^1-(2-ethy1-2H-indazol-6-yl)-N^3-methylisophthalamide]	C (C indicates inhibition of from 10% to 20%)	–
O=C(Nc1ccc2c(c1)OCO2)c1ccc(C(=O)Nc2ccc3c(c2)OCO3)cc1 [Compound I-5, N^1,N^4-bis(benzo[d][1,3]dioxol-5-yl)terephthalamide]	A (A indicates inhibition above 30%)	–
Cc1cccc(CNC(=O)c2ccc(C(=O)Nc3cccc(-n4ccnn4)c3)cc2)c1 [Compound I-9, N^1-(3-(1H-1,2,3-triazol-1-yl)phenyl)-N^4-(3-methylbenzyl)terephthalamide]	A (A indicates inhibition above 30%)	–
Cn1nc(Cn2c(=O)c3ccccc3c(=O)n2C)cc1Cl [Compound I-26, 2-((5-chloro-1-methyl-1H-pyrazol-3-yl)methyl)-3-methyl-2,3-dihydrophthalazine-1,4-dione]	C (C indicates inhibition of from 10% to 20%)	–
O=C(Nc1ccccc1)c1cccc(C(=O)Nc2cc3c(cc2Cl)OCO3)c1 [Compound I-4, N^1-(6-chlorobenzo[d][1,3]dioxol-5-yl)-N3-phenylisophthalamide]	A (A indicates inhibition above 30%)	–
O=C(Nc1cccc(N2CCCC2)c1)c1ccc2c(c1)C(=O)NC2=O [Compound I-10, 1,3-dioxo-N-(3-(pyrrolidin-1-yl)phenyl)isoindoline-5-carboxamide]	B (B indicates inhibition of from 20% to 30%)	–
CCc1noc(C)c1Cn1c(=O)c2ccccc2c(=O)n1C [Compound I-21, 2-((3-ethyl-5-methylisoxazol-4-yl)methyl)-3-methyl-2,3-dihydrophthalazine-1,4-dione]	C (C indicates inhibition of from 10% to 20%)	–
O=C(Nc1ccccc1)c1ccc(C(=O)N[C@@H]2C[C@H]2c2ccccc2)cc1 [Compound I-42, N^1-phenyl-N^4-((1R,2S)-2-phenylcyclopropyl)terephthalamide]	D (D indicates inhibition of <10%)	–
O=C(NCc1ccccc1)c1ccccc1C(=O)NCc1ccccc1 [Compound I-30, N^1,N^2-dibenzylphthalamide]	C (C indicates inhibition of from 10% to 20%)	–
CSc1cccc(NC(=O)c2ccc(C(=O)Nc3cccc(SC)c3)cc2)c1 [Compound I-2, N^1,N^4-bis(3-(methylthio)phenyl)terephthalamide]	A (A indicates inhibition above 30%)	–
CC(NC(=O)c1cccc(C(=O)Nc2ccccc2)c1)C(=O)N1CCS(=O)(=O)CC1 (centres unmarked) [Compound I-32, N^1-(1-(1,1-dioxidothiomorpholino)-1-oxopropan-2-yl)-N^3-phenylisophthalamide]	C (C indicates inhibition of from 10% to 20%)	–
Cc1n[nH]c2cc(NC(=O)c3cccc(C(=O)Nc4ccc5c(C)n[nH]c5c4)c3)ccc12 [Compound I-19, N^1,N^3-bis(3-methyl-1H-indazol-6-yl)isophthalamide]	B (B indicates inhibition of from 20% to 30%)	–
Cc1cnc(NC(=O)c2ccc(C(=O)Nc3ccccc3)cc2)[nH]1 [Compound I-38, N^1-(5-methyl-1H-imidazol-2-yl)-N^4-phenylterephthalamide]	D (D indicates inhibition of <10%)	–
Cc1ccc(NC(=O)c2ccc(C(=O)Nc3ccc(C)cc3)cc2)cc1 [Compound I-1, N^1,N^4-di-p-tolylterephthalamide]	A (A indicates inhibition above 30%)	–
O=C(Nc1ccccc1)c1cccc(C(=O)Nc2cccc(-c3nnn[nH]3)c2)c1 [Compound I-29, N^1-(3-(1H-tetrazol-5-yl)phenyl)-N^3-phenylisophthalamide]	C (C indicates inhibition of from 10% to 20%)	–
O=C(Nc1ccccc1)c1cccc(C(=O)Nc2[nH]ncc2-c2ccc3c(c2)OCO3)c1 [Compound I-16, N1-(4-(benzo[d][1,3]dioxol-5-yl)-1H-pyrazol-5-yl)-N3-phenylisophthalamide]	B (B indicates inhibition of from 20% to 30%)	–
O=C(Nc1ccc2c(c1)OCCO2)c1ccc(C(=O)Nc2ccc3c(c2)OCCO3)cc1 [Compound I-6, N^1,N^4-bis(2,3-dihydrobenzo[b][1,4]dioxin-6-yl)terephthalamide]	A (A indicates inhibition above 30%)	–
COCC#CCn1c(=O)c2ccccc2c(=O)n1C [Compound I-31, 2-(4-methoxybut-2-yn-1-yl)-3-methyl-2,3-dihydrophthalazine-1,4-dione]	C (C indicates inhibition of from 10% to 20%)	–
O=C(Nc1ccccc1)c1ccc(C(=O)Nc2cc3n(n2)CCC3)cc1 [Compound I-34, N^1-(5,6-dihydro-4H-pyrrolo[1,2-b]pyrazol-2-yl)-N^4-phenylterephthalamide]	C (C indicates inhibition of from 10% to 20%)	–
O=C(Nc1cccc([N+](=O)[O-])c1)c1ccccc1C(=O)N1CCCC1 [Compound I-33, N-(3-nitrophenyl)-2-(pyrrolidine-1-carbonyl)benzamide]	C (C indicates inhibition of from 10% to 20%)	–
Nc1ccc(N2C(=O)c3ccccc3C2=O)c(Cl)c1 [Compound I-25, 2-(4-amino-2-chlorophenyl)isoindoline-1,3-dione]	C (C indicates inhibition of from 10% to 20%)	–
